What follows are compounds tested against T1, human GnRH receptor (Homo sapiens, UniProt P30968) (assay: peptide competitive human receptor binding assays (radioligand displacement)). Conditions: tested in one or more of the peptide competitive human receptor binding assays.
T1 construct: expressed in transfected cells; membrane preparations
T1 sequence (P30968 1-328): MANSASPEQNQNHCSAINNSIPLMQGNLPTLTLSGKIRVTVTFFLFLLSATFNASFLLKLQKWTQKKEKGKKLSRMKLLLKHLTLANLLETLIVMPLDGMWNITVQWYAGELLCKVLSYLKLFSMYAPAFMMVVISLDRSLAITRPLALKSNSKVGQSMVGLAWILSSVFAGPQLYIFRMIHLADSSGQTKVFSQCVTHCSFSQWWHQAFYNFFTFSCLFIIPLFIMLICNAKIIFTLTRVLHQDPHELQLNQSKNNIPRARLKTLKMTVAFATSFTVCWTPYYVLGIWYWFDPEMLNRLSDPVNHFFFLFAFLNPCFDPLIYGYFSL
Experimental: HEK293 cells stably transfected with the human GnRH receptor are grown for two days after achieving confluence then are harvested by striking tissue culture flasks against a firm surface. Cells are collected by centrifugation at 1000 g for […]. Cell pellets are resuspended in 5% sucrose and homogenized using a polytron homogenizer for two 15 second homogenization steps. Cell homogenates are then centrifuged for 5 minutes at 3000 g to remove nuclei and the supernatant subsequently centrifuged for 30 minutes at 44,000 g to collect the membrane fraction. The membrane pellet is resuspended in GnRH binding buffer (10 mM HEPES, pH 7.5, 150 mM NaCl and 0.1% BSA) and aliquots immediately snap-frozen in liquid nitrogen and stored at −80° C. Protein content of the membrane suspension is determined using the Bio-Rad protein assay kit (Bio-Rad).
RBL cells stably transfected with the human GnRH receptor are grown to 80% confluency prior to harvesting. The cells are incubated at 37° C. for 10 min in 0.5 mM EDTA/PBS (Ca^++, Mg^++ free), and are dislodged from the plate by gentle rapping of the flasks. Cells are collected and pelleted by centrifugation at 1000 g for 5 minutes. Cell pellets are resuspended in buffer (DPBS supplemented with 10 mM MgCl2, 2 mM EGTA, pH=7.4), and cell lysis is performed using a pressure cell and applying N2 at a pressure of 900 psi for 30 min at 4° C. Unbroken cells and larger debris were removed by centrifugation at 1200 g for 10 min at 4° C. The cell membrane supernatant is then centrifuged at 45,000 g and the resulting membrane pellet is resuspended in assay buffer and homogenized on ice using a tissue homogenizer. Protein concentrations are determined using the Coomassie Plus Protein Reagent kit. Membranes are aliquoted and stored at −80° C. until ready for use.
Radioligand binding displacement assays using the peptide radioligands are performed in buffer containing 10 mM HEPES, 150 mM NaCl and 0.1% BSA, pH=7.5. Radioligand binding assays employing the use of [^3H]-1-(2,6-difluorobenzyl)-3-[(2R)-amino-2-phenethyl]-5-(2-fluoro-3-methoxyphenyl)-6-methyluracil (here the 3-methoxy group is tritiated) are run in buffer containing 50 mM Tris, 150 mM NaCl, 5 mM MgCl2, 0.01% saponin and 0.5 mM EDTA, pH=7.5. Radioligand displacement assays are performed by incubating radioligand ([^125I-Tyr^5, DLeu^6, NMeLeu^7, Pro^9-NEt]GnRH (0.1 nM), [His^5, ^125I-DTyr^6]GnRH (0.2 nM) (31) or [^3H]-1-(2,6-difluorobenzyl)-3-[(2R)-amino-2-phenethyl]-5-(2-fluoro-3-methoxyphenyl)-6-methyluracil (1 nM)), unlabeled competitors at concentrations ranging from 0.3 pM to 10 μM, and membranes for 2 hrs at rt. 10 to 20 μg protein/well is used from membrane preparations for human, monkey and rabbit GnRH receptor. 5 μg/well and 60 μg/well of membranes are used for rat and dog GnRH receptors, respectively. Binding assays are performed in either Millipore 96-well GF/C filtration plates (for ([^125I-Tyr^5, DLeu^6, NMeLeu^7, Pro^9-NEt]GnRH assays), or in 96 well low binding plates, which are subsequently filtered onto GF/C Unifilters. Filters are pretreated with 0.5% PEI for 30 min prior to use. Reactions are terminated by rapid vacuum filtration, and the filters are washed twice with 250 μL ice cold PBS pH=7.4 (0.01% Tween-20 is included in wash media for [His^5, ^125I-DTyr^6]GnRH and [^3H]-1-(2,6-difluorobenzyl)-3-[(2R)-amino-2-phenethyl]-5-(2-fluoro-3-methoxyphenyl)-6-methyluracil radioligands). The filters are dried, and the Millipore filters are monitored for radioactivity using a Cobra II gamma counter (Perkin Elmer Life Sciences). For assays filtered onto the GF/C Unifilter plates, 50 μL scintillation fluid is added to each filter, and radioactivity is monitored using a TopCount NXT. For iodinated radioligands, total radioligand is monitored on a gamma counter, and for the tritiated radioligand, total radioligand is monitored using a Perkin Elmer 1600TR liquid scintillation counter. […]

| Structure (SMILES) | Ki [nM] |
| --- | --- |
| CC1(C)CCN(S(=O)(=O)c2cc(-c3cnc(C(F)(F)F)cc3C#N)c(Cl)cc2OCCO)c2ccccc21 [Example 11-2, 5-[2-chloro-5-(4,4-dimethyl-3,4-dihydro-2H-quinoline-1-sulfonyl)-4-(2-hydroxy-ethoxy)-phenyl]-2-trifluoromethyl-isonicotinonitrile] | ≤ 100 |
| CC1(C)CCN(S(=O)(=O)c2cc(-c3cnc(C(F)(F)F)cc3C#N)c(Cl)cc2OCCCO)c2ccccc21 [Example 11-3, 5-[2-chloro-5-(4,4-dimethyl-3,4-dihydro-2H-quinoline-1-sulfonyl)-4-(3-hydroxy-propoxy)-phenyl]-2-trifluoromethyl-isonicotinonitrile] | ≤ 100 |
| CC1(C)CCN(S(=O)(=O)c2cc(-c3cnc(C(F)(F)F)cc3C#N)c(Cl)cc2OCCCC(=O)O)c2ccccc21 [Example 12-1, 4-[5-chloro-4-(4-cyano-6-trifluoromethyl-pyridin-3-yl)-2-(4,4-dimethyl-3,4-dihydro-2H-quinoline-1-sulfonyl)-phenoxy]-butyric acid] | ≤ 100 |
| CC1(C)CCN(S(=O)(=O)c2cc(-c3cnc(C(F)(F)F)cc3C#N)c(Cl)cc2OCC(=O)O)c2ccccc21 [Example 12-2, [5-chloro-4-(4-cyano-6-trifluoromethyl-pyridin-3-yl)-2-(4,4-dimethyl-3,4-dihydro-2H-quinoline-1-sulfonyl)-phenoxy]-acetic acid] | ≤ 100 |
| CC1(C)CCN(S(=O)(=O)c2cc(-c3cnc(C(F)(F)F)cc3C#N)c(Cl)cc2OCCC(=O)O)c2ccccc21 [Example 12-3, 3-[5-chloro-4-(4-cyano-6-trifluoromethyl-pyridin-3-yl)-2-(4,4-dimethyl-3,4-dihydro-2H-quinoline-1-sulfonyl)-phenoxy]-propionic acid] | ≤ 100 |
| Cc1cc(C(F)(F)F)nc(=O)n1-c1cc(S(=O)(=O)N2CCCCc3ccccc32)ccc1Cl [Example 13-1, 1-[2-chloro-5-(2,3,4,5-tetrahydro-benzo[b]azepine-1-sulfonyl)-phenyl]-6-methyl-4-trifluoromethyl-1H-pyrimidin-2-one] | ≤ 100 |
| COc1cc(Cl)c(-c2cnc(C(F)(F)F)cc2C#N)cc1S(=O)(=O)N(C)c1ccccc1 [Example 15-1, 4-chloro-5-(4-cyano-6-trifluoromethyl-pyridin-3-yl)-2-methoxy-N-methyl-N-phenyl-benzenesulfonamide] | ≤ 100 |
| COc1cc(Cl)c(-c2cnc(C(F)(F)F)cc2C#N)cc1S(=O)(=O)N1CCC(C)(C)c2ccccc21 [Example 15-2] | ≤ 100 |
| COc1cc(Cl)c(-c2cnc(C(F)(F)F)cc2C#N)cc1S(=O)(=O)N(C)c1cccc(Cl)c1 [Example 15-3] | ≤ 100 |
| COc1cc(Cl)c(-c2cnc(C(F)(F)F)cc2C#N)cc1S(=O)(=O)N(C)c1ccccc1C [Example 15-5] | ≤ 100 |
| COc1cc(Cl)c(-c2cnc(C(F)(F)F)cc2C#N)cc1S(=O)(=O)N(C)c1ccc(F)cc1 [Example 15-6] | ≤ 100 |
| COc1cc(Cl)c(-c2cnc(C(F)(F)F)cc2C#N)cc1S(=O)(=O)N(C)c1ccc(Cl)c(Cl)c1 [Example 15-8] | ≤ 100 |
| COc1cc(Cl)c(-c2cnc(C(F)(F)F)cc2C#N)cc1S(=O)(=O)N(C)c1cccc(C)c1 [Example 15-9] | ≤ 100 |
| COc1cc(Cl)c(-c2cnc(C(F)(F)F)cc2C#N)cc1S(=O)(=O)N(C)c1ccc(Cl)cc1 [Example 15-10] | ≤ 100 |
| COc1cc(Cl)c(-c2cnc(C(F)(F)F)cc2C#N)cc1S(=O)(=O)N(C)c1cccc(F)c1 [Example 15-11] | ≤ 100 |
| COc1cc(Cl)c(-c2cnc(C(F)(F)F)cc2C#N)cc1S(=O)(=O)N(C)c1ccccc1F [Example 15-12] | ≤ 100 |

Continued, values first:

| Ki [nM] | Structure (SMILES) |
| --- | --- |
| ≤ 100 | COc1cccc(N(C)S(=O)(=O)c2cc(-c3cnc(C(F)(F)F)cc3C#N)c(Cl)cc2OC)c1 [Example 15-14] |
| ≤ 100 | COc1cc(Cl)c(-c2cnc(C(F)(F)F)cc2C#N)cc1S(=O)(=O)N(C)c1c(C)cccc1OC [Example 15-15] |
| ≤ 100 | COc1ccccc1N(C)S(=O)(=O)c1cc(-c2cnc(C(F)(F)F)cc2C#N)c(Cl)cc1OC [Example 15-16] |
| ≤ 100 | COc1cc(Cl)c(-c2cnc(C(F)(F)F)cc2C#N)cc1S(=O)(=O)N1CCCCc2ccccc21 [Example 15-17] |
| ≤ 100 | COc1cc(Cl)c(-c2cnc(C(F)(F)F)cc2C#N)cc1S(=O)(=O)N(C)c1ccccn1 [Example 15-18] |
| ≤ 100 | COc1cc(Cl)c(-c2cnc(C(F)(F)F)cc2C#N)cc1S(=O)(=O)N(C)c1ncccc1C [Example 15-19] |
| ≤ 100 | COc1cccc(N(C)S(=O)(=O)c2cc(-c3cnc(C(F)(F)F)cc3C#N)c(Cl)cc2OC)n1 [Example 15-20] |
| ≤ 100 | COc1cc(Cl)c(-c2cnc(C(F)(F)F)cc2C#N)cc1S(=O)(=O)N(C)CC(C)C [Example 15-21] |
| ≤ 100 | CCOC(=O)CN(C)S(=O)(=O)c1cc(-c2cnc(C(F)(F)F)cc2C#N)c(Cl)cc1OC [Example 15-26] |
| ≤ 100 | CCCCNS(=O)(=O)c1cc(-c2cnc(C(F)(F)F)cc2C#N)c(Cl)cc1OC [Example 15-28] |
| ≤ 100 | COc1ccccc1CN(C)S(=O)(=O)c1cc(-c2cnc(C(F)(F)F)cc2C#N)c(Cl)cc1OC [Example 15-29] |
| ≤ 100 | COc1cc(Cl)c(-c2cnc(C(F)(F)F)cc2C#N)cc1S(=O)(=O)N(C)CC(C)(C)C [Example 15-30] |
| ≤ 100 | COc1cccc(CN(C)S(=O)(=O)c2cc(-c3cnc(C(F)(F)F)cc3C#N)c(Cl)cc2OC)c1 [Example 15-32] |
| ≤ 100 | COc1cc(Cl)c(-c2cnc(C(F)(F)F)cc2C#N)cc1S(=O)(=O)N(C)Cc1ccc(F)cc1 [Example 15-33] |
| ≤ 100 | COc1cc(Cl)c(-c2cnc(C(F)(F)F)cc2C#N)cc1S(=O)(=O)N(C)Cc1cccc(F)c1 [Example 15-34] |
| ≤ 100 | COc1cc(Cl)c(-c2cnc(C(F)(F)F)cc2C#N)cc1S(=O)(=O)N(C)Cc1ccccc1F [Example 15-35] |
| ≤ 100 | COc1cc(Cl)c(-c2cnc(C(F)(F)F)cc2C#N)cc1S(=O)(=O)N(C)Cc1cccc(C)n1 [Example 15-38] |
| ≤ 100 | COc1cc(Cl)c(-c2cnc(C(F)(F)F)cc2C#N)cc1S(=O)(=O)N(C)Cc1ccco1 [Example 15-39] |
| ≤ 100 | COc1cc(Cl)c(-c2cnc(C(F)(F)F)cc2C#N)cc1S(=O)(=O)N(C)[C@H](C)c1ccccc1 [Example 15-43] |
| ≤ 100 | COc1cc(Cl)c(-c2cnc(C(F)(F)F)cc2C#N)cc1S(=O)(=O)N(C)[C@@H](C)c1ccccc1 [Example 15-44] |
| ≤ 100 | COC(=O)Cc1cc(Cl)c(-c2cnc(C(F)(F)F)cc2C#N)cc1S(=O)(=O)N1CCC(C)(C)c2ccccc21 [Example 16-1, [5-Chloro-4-(4-cyano-6-trifluoromethyl-pyridin-3-yl)-2-(4,4-dimethyl-3,4-dihydro-2H-quinoline-1-sulfonyl)-phenyl]-acetic acid methyl ester] |

Reference: patent publication US8507536B2, “Gonadotropin-releasing hormone receptor antagonists and methods relating thereto” (Neurocrine Biosciences, Inc., priority 2007, dated 2013)
